Test: Henry solubility constant Hcp at 298.15 K (mol/(m3 Pa))
Details: reference: Welke et al. (1998)

SMILES | Henry solubility constant Hcp
CCC[N+](=O)[O-] [1-nitropropane] | 0.16
C=CCCl [3-chloro-1-propene] | 0.0037
CCCOC(C)=O [propyl ethanoate] | 0.037
ClCC1CO1 (stereo not drawn) [(chloromethyl)-oxirane] | 0.29
CC(=O)CC(C)C [4-methyl-2-pentanone] | 0.047
Clc1ccccc1 [chlorobenzene] | 0.0027
CCOC(C)=O [ethyl ethanoate] | 0.034
Cc1ccccc1 [methylbenzene] | 0.0014
CC(C)=O [propanone] | 0.096
CC(Cl)CCl (stereo not drawn) [1,2-dichloropropane] | 0.0055
Cc1ccccc1C [1,2-dimethylbenzene] | 0.0022
C=C(C)C1CC=C(C)CC1 (stereo not drawn) [1-methyl-4-(1-methylethenyl)-cyclohexene] | 0.00024
CCCCOC(C)=O [butyl ethanoate] | 0.027
CC#N [ethanenitrile] | 0.34
ClCCl [dichloromethane] | 3.7
C=Cc1ccccc1 [ethenylbenzene] | 0.0025
c1ccccc1 [benzene] | 0.0016
C=CC#N [2-propenenitrile] | 0.031

Reference: Sander's compilation of Henry's law constants (doi:10.1021/es970763v)
